Results from patent publication US20220296573A1, “NOVEL COMPOUNDS AND PHARMACEUTICAL COMPOSITIONS THEREOF FOR THE TREATMENT OF INFLAMMATORY DISORDERS” (Galapagos NV, priority 2019, published 2022).
Values after ≈ are worked out from the molar mass of the structure shown. Read-outs that look alike come from different tables or passages of the source.

Experiments:
Thermodynamic solubility = format: physicochemical; conditions: for solubility thermodynamic at 24 h: 37 °C, thermodynamic from solid
Procedure: In a 8 mL glass vial, 1-2 mg of dry matter of compound were added and stirred with the suitable buffers (Fed State Simulated Intestine Fluid, FeSSIF, or Fasted State Simulated Intestine Fluid, FaSSIF, or Fasted State Simulated Gastric Fluid, FaSSGF, or phosphate buffer pH 7.4) for 24 h at r.t. (for the buffer pH 7.4) or 37° C. (for the GI fluids). The concentration of the mixture was 1 mg/mL.
A volume of 1000 μL were sampled, centrifuged for 10 min at 10 000 rpm and 500 μL of the supernatant were filtered on captiva plate. The samples are diluted in duplicates in DMSO (F100 and F10). Then, a final dilution (F100) in 80/20 H2O/MeCN containing the internal standard (warfarin) was used for LCMS-MS analysis.
A standard curve was made starting from a 40,000 ng/mL stock in DMSO, freshly prepared from dry matter. Then, successive concentrations at 15,000, 11,000, 6,000, 2,500, 1,000, 375, 150 and 75 ng/mL in DMSO were prepared.
Three quality control samples were made: one of 10,000, 1,500 and 200 ng/mL in DMSO, also starting from the DMSO working stock solution at 40,000 ng/mL.
The standard curve and quality controls were diluted a F100 in 80/20 H2O/MeCN (with internal standard) and analyzed on LC/MS-MS (API4000 or API5500).
The samples were analyzed on LC-MS with a flow rate of 0.6 mL/min. The mobile phase A was 0.1% formic acid in water and the mobile phase B was 0.1% formic acid in 90% MeCN and 10% of water. The sample was run under positive or negative ion spray on Pursuit C18—5 μm (2.0×20 mm) column, from Agilent.
The ratio analyte/internal standard peaks areas of the standard curve were plotted in a graph and a linear or polynomial of the second order equation was used to calculate the unknown concentrations of the test compound.
Solubility values were reported in μM and g/mL.

[1] = test system: CL097 triggered IFNα release in human whole blood; test: Ex vivo human IFNα release inhibition (whole blood assay); format: cell-based; conditions: CL097 2 μg/mL, 3 h 30 min
Description: The aim of the assay is to evaluate the activity of compounds of the invention on the activated TLR/IRAK-4 pathway in an ex vivo human whole blood setting. Toll-like receptors (TLRs) are pattern recognition receptors that recognize a wide variety of microbial molecules, called pathogen-associated molecular patterns (PAMPs). Human TLR7 and TLR8 recognize imidazoquinoline compounds (e.g., CL097—CAS n #1026249-18-2) and single stranded RNAs as their natural ligands. Activation of TLRs leads to the production of several cytokines (e.g., IFNα, TNFα, IL-8, IL-6) by the TLR agonist-treated cells, whereas IRAK4 leads to the production of IFNα. Cytokine release is used as readout in this assay and represents a measure for the level of inhibition of the TLR/IRAK-4 pathway by the tested compound. It should be noted that in the context of the complete organism, other sources for these cytokines exist that are not dependent on the TLR/IRAK-4 pathway, such as e.g., macrophages (upon activation of the Fcγ receptor (Yan et al. 2012)) or T cells (upon activation of the T cell receptor (Brehm, Daniels, and Welsh 2005)).
Blood is collected from healthy volunteers into lithium heparin tubes by venipuncture, then gently inverted several times to prevent clotting and incubated for at least 15 min at 37° C. on a rocking mixer shaker. Then, 100 μL of blood is dispensed into polypropylene 96-well microplate and pre-incubated in duplicate with 0.3% DMSO or test compound at different concentrations (from 30 to 0.01 μM, 3-fold dilutions to get 0.3% DMSO at the final) for 15 min at 37° C. After this pre-incubation, blood is triggered with CL097 (2 μg/mL from 1 mg/mL solution in water; InvivoGen, tlr1-c97) for 3 h 30 min at 37° C. Microtubes are centrifuged at 5000×g for 10 min at 4° C. and approximately 40 μL of plasma are collected into a polystyrene 96-well plate. Plasma can be analyzed freshly, within 30 min after triggering, or frozen at −80° C. Finally, the quantification of IFNα and IFNα were performed in the plasma using AlphaLISA Kit for […] according to the manufacturer's instructions and read on the Ensight (PerkinElmer).
A standard curve was created by plotting on log-log the mean absorbance on the y-axis against the concentration on the x-axis and a 4PL was made through the points. For each blood sample, the IFNα concentrations of the samples were determined from the fit.
Data were then expressed as a percentage of inhibition (PIN) for each replicate using the formula:
With mean IFNα with CL097=mean IFNα concentration of replicate samples triggered with CL097; IFNαsample1=IFNα concentration of sample 1; mean IFNα with vehicle=mean IFNα concentration of replicate samples treated with vehicle.
Curve fitting for pIC50 determination were generated using mean PIN±sem. Graphs and pIC50 calculations were derived using Prism 5.03 software (GraphPad).

[2] = Fasted State Simulated Intestine Fluid (FaSSIF), fassif, Fasted State Simulated Intestine Fluid, read-out: Tsol FaSSIF
[3] = Fed State Simulated Intestine Fluid (FeSSIF), fessif, Fed State Simulated Intestine Fluid, read-out: Tsol FeSSIF
[4] = Fasted State Simulated Gastric Fluid (FaSSGF), fassgf or other biorelevant, Fasted State Simulated Gastric Fluid, read-out: Tsol FaSSGF
[5] = Fasted State Simulated Intestine Fluid, 24 h, 37° C.

SMILES	solubility thermodynamic at 24 h (Thermodynamic solubility; [2])	IC50 [1]	solubility thermodynamic at 24 h (Thermodynamic solubility; [3])	solubility thermodynamic at 24 h (Thermodynamic solubility; [4])	Tsol FaSSIF (Thermodynamic solubility; [5])	Tsol FaSSGF (Thermodynamic solubility; Fasted State Simulated Gastric Fluid, 24 h, 37° C.)	Tsol FeSSIF (Thermodynamic solubility; Fed State Simulated Intestine Fluid, 24 h, 37° C.)
COc1cc2nc(C3COCCO3)cn2cc1NC(=O)c1cccn(C2CCC2)c1=O (centres unmarked) [Compound 5, 1-cyclobutyl-N-[2-(1,4-dioxan-2-yl)-7-methoxy-imidazo[1,2-a]pyridin-6-yl]-2-oxo-pyridine-3-carboxamide]	43.9 µg/mL (≈ 103 µM)	1000 to 5000 nM					
COc1cc2nc(C3CCS(=O)(=O)CC3)cn2cc1NC(=O)c1cccn(C2CC2)c1=O [Compound 23, 1-cyclopropyl-N-(2-(1,1-dioxidotetrahydro-2H-thiopyran-4-yl)-7-methoxyimidazo[1,2-a]pyridin-6-yl)-2-oxo-1,2-dihydropyridine-3-carboxamide]		0.1 to 500 nM	270 µg/mL (≈ 591 µM)				
CC(F)(F)c1cccc(C(=O)Nc2cn3cc(C4COCCO4)nc3cc2C(N)=O)n1 (centres unmarked) [Compound 11, 6-(6-(1,1-difluoroethyl)picolinamido)-2-(1,4-dioxan-2-yl)imidazo[1,2-a]pyridine-7-carboxamide]	12.2 µg/mL (≈ 28.3 µM)	500 to 1000 nM		335 µg/mL (≈ 777 µM)			
COc1cc2nc(C3COCCO3)cn2cc1NC(=O)c1cccn(C2CC2)c1=O (racemic) [Compound 1, 1-cyclopropyl-N-[2-(1,4-dioxan-2-yl)-7-methoxy-imidazo[1,2-a]pyridin-6-yl]-2-oxo-pyridine-3-carboxamide]	28.2 µg/mL (≈ 68.7 µM)	0.1 to 500 nM	> 1000 µg/mL	> 1000 µg/mL			
NC(=O)c1cc2nc(C3COCCO3)cn2cc1NC(=O)c1cccc(C(F)(F)F)n1 (centres unmarked) [Compound 6, 2-(1,4-dioxan-2-yl)-6-[[6-(trifluoromethyl)pyridine-2-carbonyl]amino]imidazo[1,2-a]pyridine-7-carboxamide]		1000 to 5000 nM			2.30, 2.30 μg/mL		
COc1cc2nc(C3CCOCC3)cn2cc1NC(=O)c1cccn(C2CC2)c1=O [Compound 3, (1-cyclopropyl-N-[7-methoxy-2-(oxan-4-yl)imidazo[1,2-a]pyridin-6-yl]-2-oxopyridine-3-carboxamide)]	1010 µg/mL (≈ 2480 µM)	500 to 1000 nM		947 µg/mL (≈ 2320 µM)			
CNC(=O)c1cc2nc(C3COCCO3)cn2cc1NC(=O)c1cccc(C(F)(F)F)n1 (centres unmarked) [Compound 9, 2-(1,4-dioxan-2-yl)-N-methyl-6-(6-(trifluoromethyl)picolinamido)imidazo[1,2-a]pyridine-7-carboxamide]	6.42 µg/mL (≈ 14.3 µM)	1000 to 5000 nM					
COc1cc2nc(C3CCOCC3)cn2cc1NC(=O)c1cccc(C(F)(F)F)n1 [Compound 2, N-(7-methoxy-2-tetrahydropyran-4-yl-imidazo[1,2-a]pyridin-6-yl)-6-(trifluoromethyl)pyridine-2-carboxamide]	19.3 µg/mL (≈ 45.9 µM)	> 5000 nM		1020 µg/mL (≈ 2430 µM)			
COc1cc2nc(C3COCCO3)cn2cc1NC(=O)c1cccn(C2CC2)c1=O (single isomer, unassigned) [Compound 7, 1-cyclopropyl-N-[2-(1,4-dioxan-2-yl)-7-methoxy-imidazo[1,2-a]pyridin-6-yl]-2-oxo-pyridine-3-carboxamide]		0.1 to 500 nM			31.6 µg/mL	958 µg/mL	117 µg/mL
COc1cc2nc(C3COCCO3)cn2cc1NC(=O)c1cccn(C2CC2)c1=O (single isomer, unassigned) [Compound 8, 1-cyclopropyl-N-[2-(1,4-dioxan-2-yl)-7-methoxy-imidazo[1,2-a]pyridin-6-yl]-2-oxo-pyridine-3-carboxamide]		0.1 to 500 nM	208 µg/mL (≈ 507 µM)	1000 µg/mL (≈ 2440 µM)	67.4 µg/mL		
